US7319098B2, “1,3-dioxoisoindole derivatives having selective antagonism of T-type calcium channel” (Korea Institute of Science and Technology, priority 2006, dated 2008)

Each compound was assayed against T1, α1G T-type Ca2+ channels (Homo sapiens, UniProt O43497) (assay: Screening of activity against T-type calcium channel with FDSS6000 (fluorescence, KCl-induced [Ca2+]i increase)). Details: 10 μM; HEK293 cells expressing α1G and Kir2.1; NA: Not Active; read-out: Inhibitory effect (%) of T-type calcium channel, Inhibition (%).
T1 construct: expressed in transfected cells; host or cells: HEK293 cells stably expressing α1G and Kir2.1
T1 sequence (O43497 whole entry): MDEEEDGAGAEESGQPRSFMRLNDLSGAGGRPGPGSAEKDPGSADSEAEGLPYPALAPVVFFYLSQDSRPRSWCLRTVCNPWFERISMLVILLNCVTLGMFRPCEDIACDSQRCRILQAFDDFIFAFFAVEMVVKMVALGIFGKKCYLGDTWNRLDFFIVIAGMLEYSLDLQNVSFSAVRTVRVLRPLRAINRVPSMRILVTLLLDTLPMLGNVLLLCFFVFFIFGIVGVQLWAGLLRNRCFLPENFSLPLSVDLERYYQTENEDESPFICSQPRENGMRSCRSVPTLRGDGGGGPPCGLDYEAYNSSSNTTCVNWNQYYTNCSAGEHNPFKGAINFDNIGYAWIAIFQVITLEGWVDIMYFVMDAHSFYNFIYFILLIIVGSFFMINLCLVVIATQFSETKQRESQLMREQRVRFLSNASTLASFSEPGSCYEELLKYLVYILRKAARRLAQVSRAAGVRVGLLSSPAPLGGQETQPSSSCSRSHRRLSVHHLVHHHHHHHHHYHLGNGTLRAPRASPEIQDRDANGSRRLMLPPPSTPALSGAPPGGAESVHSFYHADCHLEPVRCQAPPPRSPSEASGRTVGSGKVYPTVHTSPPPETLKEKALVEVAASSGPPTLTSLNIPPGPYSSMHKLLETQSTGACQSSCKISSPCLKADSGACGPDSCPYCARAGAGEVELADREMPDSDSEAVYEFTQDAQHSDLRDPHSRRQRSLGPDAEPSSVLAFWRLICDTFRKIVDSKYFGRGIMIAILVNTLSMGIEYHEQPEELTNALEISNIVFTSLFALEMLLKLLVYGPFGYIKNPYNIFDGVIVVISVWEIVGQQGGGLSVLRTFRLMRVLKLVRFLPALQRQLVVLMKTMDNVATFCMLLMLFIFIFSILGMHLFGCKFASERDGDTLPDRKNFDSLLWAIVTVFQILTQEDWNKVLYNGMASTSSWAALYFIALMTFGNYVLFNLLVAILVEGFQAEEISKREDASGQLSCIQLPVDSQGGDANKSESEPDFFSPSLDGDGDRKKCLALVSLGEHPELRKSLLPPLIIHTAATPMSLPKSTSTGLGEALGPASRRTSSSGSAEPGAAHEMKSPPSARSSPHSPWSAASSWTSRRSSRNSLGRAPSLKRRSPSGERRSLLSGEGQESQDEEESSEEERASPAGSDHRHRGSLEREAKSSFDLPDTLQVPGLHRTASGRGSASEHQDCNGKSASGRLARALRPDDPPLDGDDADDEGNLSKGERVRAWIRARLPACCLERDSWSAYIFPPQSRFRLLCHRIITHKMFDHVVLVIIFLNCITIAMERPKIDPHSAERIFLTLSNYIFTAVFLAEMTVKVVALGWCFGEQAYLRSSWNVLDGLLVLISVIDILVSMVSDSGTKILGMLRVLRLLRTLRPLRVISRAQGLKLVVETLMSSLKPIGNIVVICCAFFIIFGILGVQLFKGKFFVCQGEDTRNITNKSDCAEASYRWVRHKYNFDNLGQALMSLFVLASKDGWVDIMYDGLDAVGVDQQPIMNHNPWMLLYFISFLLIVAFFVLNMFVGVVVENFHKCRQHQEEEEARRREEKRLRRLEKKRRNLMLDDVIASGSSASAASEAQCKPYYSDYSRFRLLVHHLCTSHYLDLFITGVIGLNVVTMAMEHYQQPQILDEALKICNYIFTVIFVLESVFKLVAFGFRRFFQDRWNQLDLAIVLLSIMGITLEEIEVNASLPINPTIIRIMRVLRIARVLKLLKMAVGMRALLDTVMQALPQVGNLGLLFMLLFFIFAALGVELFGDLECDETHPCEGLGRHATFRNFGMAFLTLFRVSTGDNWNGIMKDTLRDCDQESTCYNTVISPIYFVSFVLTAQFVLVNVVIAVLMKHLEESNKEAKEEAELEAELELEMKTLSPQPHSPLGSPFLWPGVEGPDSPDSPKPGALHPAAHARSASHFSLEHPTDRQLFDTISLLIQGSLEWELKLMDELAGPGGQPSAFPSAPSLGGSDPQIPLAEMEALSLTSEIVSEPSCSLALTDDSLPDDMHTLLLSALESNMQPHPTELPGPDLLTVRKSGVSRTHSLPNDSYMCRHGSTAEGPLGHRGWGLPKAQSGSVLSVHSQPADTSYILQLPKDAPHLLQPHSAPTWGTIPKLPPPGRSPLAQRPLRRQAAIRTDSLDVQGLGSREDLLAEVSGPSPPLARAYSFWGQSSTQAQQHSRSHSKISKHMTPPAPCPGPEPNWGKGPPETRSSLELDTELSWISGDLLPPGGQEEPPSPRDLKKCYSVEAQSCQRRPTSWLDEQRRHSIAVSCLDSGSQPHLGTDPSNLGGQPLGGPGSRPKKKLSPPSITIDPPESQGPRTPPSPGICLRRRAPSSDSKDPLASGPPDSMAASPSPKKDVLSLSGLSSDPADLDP
Format: cell-based
Procedure: Meanwhile, the antagonistic activity of the novel compound of Formula (1) herein against T-type calcium channel was tested as described below. The synthesized compounds were tested for the activity against T-type calcium channel with FDSS6000. Compounds with good activity were selected and IC50 values were exactly obtained by using electrophysiological whole cell patch clamp method. HEK293 cells which stably express both α1G and Kir2.1 subunits were grown in Dulbecco's modified Eagle's medium supplemented with 10% (v/v) fetal bovine serum, penicillin (100 U/mL), streptomycin (100 μg/mL), geneticin (500 μg/mL), and +puromycin (I μg/mL) at 37° C. in a humid atmosphere of 5% CO2 and 95% air. Cells were seeded into 96-well black wall clear bottom plates at a density of 4×10^4 cells/well and were used the next day for high-throughput screening (HTS) FDSS6000 assay. For FDSS6000 assay, cells were incubated for 60 min at room temperature with 5 μM fluo3/AM and 0.001% Pluronic F-127 in a HEPES-buffered solution composed of (in mM): 115 NaCl, 5.4 KCl, 0.8 MgCl2, 1.8 CaCl2, 20 HEPES, 13.8 glucose (pH 7.4). During the fluorescence-based FDSS6000 assay, cells in HEPES-buffered solution containing 10 mM CaCl2 were pretreated with a certain concentration of test compounds and then treated with high concentration of KCl ([…]). α1G T-type Ca^2+ channels were activated by using high concentration of KCl (70 mM) and the increase in [Ca^2+]i by KCl-induced depolarization was detected. During the whole procedure, cells were washed using the BIO-TEK 96-well washer. All data were collected and analyzed using FDSS6000 and related software (Hamamatsu, Japan). The IC50 results of examining the inhibitory effects of the compounds herein selected with FDSS6000 on the calcium influx through the T-type calcium channel are provided in TABLEs 1 and 2.
With `Cc1ccc(CN2C(=O)c3ccc(C(=O)NCCN4CCCC4)cc3C2=O)cc1` [Compound 107, 1-(2-{[2-(4-methyl-benzyl)-1,3-dioxo-2,3-dihydro-1H-isoindol-5-carbonyl]-amino}-ethyl)-pyrrolidinium chloride] the inhibition at 10 µM was 20.7%.
Compound `Cc1cccc(N2C(=O)c3ccc(C(=O)NCCCN4CCOCC4)cc3C2=O)c1` [Compound 38, 4-{3-[(1,3-dioxo-2-m-tolyl-2,3-dihydro-1H-isoindol-5-carbonyl)-amino]-propyl}-4-morpholinium chloride] has an inhibition at 10 µM of 4.2%.
`O=C(NCCCN1CCCC1)c1ccc2c(c1)C(=O)N(Cc1ccccc1Cl)C2=O` [Compound 78, 1-(3-{[2-(2-chloro-benzyl)-1,3-dioxo-2,3-dihydro-1H-isoindol-5-carbonyl]-amino}-propyl)-pyrrolidinium chloride] showed an inhibition at 10 µM of 25.4%.
With `CC1CCCCN1CCCNC(=O)c1ccc2c(c1)C(=O)N(Cc1ccc(C#N)cc1)C2=O` (stereo not drawn) [Compound 130, 1-(3-{[2-(4-cyano-benzyl)-1,3-dioxo-2,3-dihydro-1H-isoindol-5-carbonyl]-amino}-propyl)-2-methyl-piperidinium chloride] the inhibition at 10 µM was 9.1%.
`O=C(NCCN1CCCCC1)c1ccc2c(c1)C(=O)N(Cc1cccc(Cl)c1)C2=O` [Compound 81, 1-(2-{[2-(3-chloro-benzyl)-1,3-dioxo-2,3-dihydro-1H-isoindol-5-carbonyl]-amino}-ethyl)-piperidinium chloride] was tested, and the inhibition at 10 µM was 42.9%.
`O=C(NCCCN1CCOCC1)c1ccc2c(c1)C(=O)N(Cc1ccccc1Cl)C2=O` [Compound 80, 4-(3-{[2-(2-chloro-benzyl)-1,3-dioxo-2,3-dihydro-1H-isoindol-5-carbonyl]-amino}-propyl)-4-morpholinium chloride] gave an inhibition at 10 µM of 23.5%.
`Cc1ccc(CN2C(=O)c3ccc(C(=O)NCCN4CCOCC4)cc3C2=O)cc1` [Compound 109, 4-(2-{[2-(4-methyl-benzyl)-1,3-dioxo-2,3-dihydro-1H-isoindol-5-carbonyl]-amino}-ethyl)-4-morpholinium chloride] gave an inhibition at 10 µM of 12.2%.
`Cc1ccc(CN2C(=O)c3ccc(C(=O)NCCCN4CCOCC4)cc3C2=O)cc1` [Compound 110, 4-(3-{[2-(4-methyl-benzyl)-1,3-dioxo-2,3-dihydro-1H-isoindol-5-carbonyl]-amino}-propyl)-4-morpholinium chloride] was tested, and the inhibition at 10 µM was 9.1%.

Same assay, conditions: 100 μM; HEK293 cells expressing α1G and Kir2.1; read-out: Inhibitory effect (%) of T-type calcium channel, Inhibition (%)
Work on `O=C(NCCN1CCCCC1)c1ccc2c(c1)C(=O)N(Cc1ccccc1)C2=O` [Compound 49, 1-{2-[(2-benzyl-1,3-dioxo-2,3-dihydro-1H-isoindol-5-carbonyl)-amino]-ethyl}-piperidinium chloride] yielded an inhibition at 100 µM of 72.4%.
`O=C(NCCN1CCCC1)c1ccc2c(c1)C(=O)N(Cc1ccc(F)cc1)C2=O` [Compound 70, 1-(2-{[2-(4-fluoro-benzyl)-1,3-dioxo-2,3-dihydro-1H-isoindol-5-carbonyl]-amino}-ethyl)-pyrrolidinium chloride] was tested, and the inhibition at 100 µM was 67.5%.
In the case of `Cc1cccc(N2C(=O)c3ccc(C(=O)NCCN4CCCCC4)cc3C2=O)c1` [Compound 33, 1-{2-[(1,3-dioxo-2-m-tolyl-2,3-dihydro-1H-isoindol-5-carbonyl)-amino]-ethyl}-piperidinium chloride], the inhibition at 100 µM is reported as 64.5%.
`O=C(NCCCN1CCOCC1)c1ccc2c(c1)C(=O)N(c1ccc(F)cc1)C2=O` [Compound 24, 4-(3-{[2-(4-fluoro-phenyl)-1,3-dioxo-2,3-dihydro-1H-isoindol-5-carbonyl]-amino}-propyl)-4-morpholinium chloride] gave an inhibition at 100 µM of 21.4%.
`O=C(NCCCN1CCCC1)c1ccc2c(c1)C(=O)N(c1ccccc1)C2=O` [Compound 4, 1-{3-[(1,3-dioxo-2-phenyl-2,3-dihydro-1H-isoindol-5-carbonyl)-amino]-propyl}-pyrrolidinium chloride] was tested, and the inhibition at 100 µM was 38.7%.
`O=C(NCCN1CCCC1)c1ccc2c(c1)C(=O)N(c1ccccc1)C2=O` [Compound 3, 1-{2-[(1,3-dioxo-2-phenyl-2,3-dihydro-1H-isoindol-5-carbonyl)-amino]-ethyl}-pyrrolidinium chloride] showed an inhibition at 100 µM of 20.3%.
`O=C(NCCCN1CCOCC1)c1ccc2c(c1)C(=O)N(Cc1ccc(F)cc1)C2=O` [Compound 73, 4-(3-{[2-(4-fluoro-benzyl)-1,3-dioxo-2,3-dihydro-1H-isoindol-5-carbonyl]-amino}-propyl)-4-morpholinium chloride] was tested, and the inhibition at 100 µM was 64.8%.
Work on `COc1cccc(N2C(=O)c3ccc(C(=O)NCCN4CCCCC4)cc3C2=O)c1` [Compound 46, 1-(2-{[2-(3-methoxy-phenyl)-1,3-dioxo-2,3-dihydro-1H-isoindol-5-carbonyl]-amino}-ethyl)-piperidinium chloride] yielded an inhibition at 100 µM of 31.4%.
With `O=C(NCCN1CCCC1)c1ccc2c(c1)C(=O)N(c1ccc(F)cc1)C2=O` [Compound 21, 1-(2-{[2-(4-fluoro-phenyl)-1,3-dioxo-2,3-dihydro-1H-isoindol-5-carbonyl]-amino}-ethyl)-pyrrolidinium chloride] the inhibition at 100 µM was 19.4%.
In the case of `O=C(NCCN1CCCCC1)c1ccc2c(c1)C(=O)N(Cc1ccc(F)cc1)C2=O` [Compound 68, 1-(2-{[2-(4-fluoro-benzyl)-1,3-dioxo-2,3-dihydro-1H-isoindol-5-carbonyl]-amino}-ethyl)-piperidinium chloride], the inhibition at 100 µM is reported as 78.2%.
With `COc1ccccc1CN1C(=O)c2ccc(C(=O)NCCN3CCOCC3)cc2C1=O` [Compound 115, 4-(2-{[2-(2-methoxy-benzyl)-1,3-dioxo-2,3-dihydro-1H-isoindol-5-carbonyl]-amino}-ethyl)-4-morpholinium chloride] the inhibition at 100 µM was 51.1%.
With `Cc1ccccc1CN1C(=O)c2ccc(C(=O)NCCN3CCOCC3)cc2C1=O` [Compound 97, 4-(2-{[2-(2-methyl-benzyl)-1,3-dioxo-2,3-dihydro-1H-isoindol-5-carbonyl]-amino}-ethyl)-4-morpholinium chloride] the inhibition at 100 µM was 69.8%.
For `O=C(NCCN1CCCC1)c1ccc2c(c1)C(=O)N(c1cccc(F)c1)C2=O` [Compound 15, 1-(2-{[2-(3-fluoro-phenyl)-1,3-dioxo-2,3-dihydro-1H-isoindol-5-carbonyl]-amino}-ethyl)-pyrrolidinium chloride], the inhibition at 100 µM was 25.8%.
For `O=C(NCCN1CCCCC1)c1ccc2c(c1)C(=O)N(c1ccccc1F)C2=O` [Compound 7, 1-(2-{[2-(2-fluoro-phenyl)-1,3-dioxo-2,3-dihydro-1H-isoindol-5-carbonyl]-amino}-ethyl)-piperidinium chloride], the inhibition at 100 µM was 40.6%.
For `COc1cccc(CN2C(=O)c3ccc(C(=O)NCCCN4CCCC4)cc3C2=O)c1` [Compound 120, 1-(3-{[2-(3-methoxy-benzyl)-1,3-dioxo-2,3-dihydro-1H-isoindol-5-carbonyl]-amino}-propyl)-pyrrolidinium chloride], the inhibition at 100 µM was 63.7%.
`O=C(NCCCN1CCCC1)c1ccc2c(c1)C(=O)N(c1cccc(F)c1)C2=O` [Compound 16, 1-(3-{[2-(3-fluoro-phenyl)-1,3-dioxo-2,3-dihydro-1H-isoindol-5-carbonyl]-amino}-propyl)-pyrrolidinium chloride] was tested, and the inhibition at 100 µM was 30%.
`O=C(NCCN1CCCC1)c1ccc2c(c1)C(=O)N(Cc1cccc(F)c1)C2=O` [Compound 63, 1-(2-{[2-(3-fluoro-benzyl)-1,3-dioxo-2,3-dihydro-1H-isoindol-5-carbonyl]-amino}-ethyl)-pyrrolidinium chloride] showed an inhibition at 100 µM of 73.4%.
`CC1CCCCN1CCCNC(=O)c1ccc2c(c1)C(=O)N(c1ccccc1F)C2=O` (stereo not drawn) [Compound 8, 1-(3-{[2-(2-fluoro-phenyl)-1,3-dioxo-2,3-dihydro-1H-isoindol-5-carbonyl]-amino}-propyl)-2-methyl-piperidinium chloride] gave an inhibition at 100 µM of 36.8%.
`COc1cccc(CN2C(=O)c3ccc(C(=O)NCCN4CCCCC4)cc3C2=O)c1` [Compound 117, 1-(2-{[2-(3-methoxy-benzyl)-1,3-dioxo-2,3-dihydro-1H-isoindol-5-carbonyl]-amino}-ethyl)-piperidinium chloride] showed an inhibition at 100 µM of 69.8%.
`O=C(NCCCN1CCOCC1)c1ccc2c(c1)C(=O)N(Cc1ccccc1)C2=O` [Compound 54, 4-{3-[(2-benzyl-1,3-dioxo-2,3-dihydro-1H-isoindol-5-carbonyl)-amino]-propyl}-4-morpholinium chloride] was tested, and the inhibition at 100 µM was 38.5%.
`CC1CCCCN1CCCNC(=O)c1ccc2c(c1)C(=O)N(c1ccccc1)C2=O` (stereo not drawn) [Compound 2, 1-{3-[(1,3-dioxo-2-phenyl-2,3-dihydro-1H-isoindol-5-carbonyl)-amino]-propyl}-2-methyl-piperidinium chloride] gave an inhibition at 100 µM of 33.8%.
`COc1ccccc1CN1C(=O)c2ccc(C(=O)NCCCN3CCOCC3)cc2C1=O` [Compound 116, 4-(3-{[2-(2-methoxy-benzyl)-1,3-dioxo-2,3-dihydro-1H-isoindol-5-carbonyl]-amino}-propyl)-4-morpholinium chloride] was tested, and the inhibition at 100 µM was 48.8%.
